These results are taken from paper PMC11293026, “Light-activated azobenzene peptide inhibitor of the PD-1/PD-L1 interaction” (Chemical Communications (Cambridge, England), 2024).

“Also recorded” adds a separate entry of the source. *1 amine or outer side, *2 acyl side, *3 side chain or, on linkers, in order; H or OH if unused. Where a SMILES comes first, the peptide text is derived from it. [ ]: non-standard residue; d: D form. X1 = O=C(Cc1cccc(/N=N/c2cccc(CN[*:1])c2)c1)[*:2]

Data set [1] has as its target T1, PD-1/PD-L1 interaction (Homo sapiens, UniProt Q9NZQ7).
T1 construct: purchased Cisbio
Nature of the data set: PD-1/PD-L1 HTRF binding assay (Cisbio). Particulars: for IC50: HTRF, 1 h at room temperature, three parameter logistic fit, brackets = 95% confidence interval, read-out: IC50, inhibition of PD-1/PD-L1 (HTRF); for IC50 / Alanine scan of CLP003, inhibition of PD-1/PD-L1 (HTRF) at single concentration: triplicate; for Alanine scan of CLP003, inhibition of PD-1/PD-L1 (HTRF) at single concentration: peptides screened at 1 mM in europium detection buffer, representative of n = 3. As to the method:
All peptides were screened at 1 mM in europium detection buffer, BMS-1 (10 μM) was the control, the positive control contained tagged PD-L1 and tagged PD-1, the negative control contained tagged PD-L1 only. Errors are SEM, performed in triplicate. Representative example of n = 3. (B) Example azobenzene modified peptide, peptide 1, predicted to be unstructured in the trans isomer and a turn motif in the cis isomer. Structures predicted with RFAllAtom and Maestro. The arrows between residues in the cis conformation implies the N to C direction. (C) The analytical HPLC traces (254 nm) showing pre-irradiated (red), irradiated at 365 nm for 20 min (blue) and a co-injection of the two samples (green). (D) UV-Vis spectra of 1. […] Post irradiation, and after up to 6 hours in the dark characteristic maxima for the cis isomer at 450 nm is observed. (E) Absorbance at 330 nm over 10 cycles of photoisomerization of peptide 1 after 20 min irradiation at 365 nm, and then isomerisation for 20 min exposed to white light. […]
6. PD-1/PD-L1 HTRF binding assay
This assay was purchased from CisBio and was performed following the manufacturer’s protocol. Tag1-PD-L1 and Tag2-PD-1 was diluted 40-fold from the stock solution with PPI-Europium detection buffer. Anti-Tag1 Eu Cryptate reagent and Anti-Tag2 XL665 antibody was diluted 50-fold from the stock solution with PPI-Europium detection buffer. HTRF 96-well low volume white plate was used. The samples were made to the desired concentration and 2 µL was pipetted into the well. The 4 µL of Tag-1-PD-L1 solution (25 nM) was added, followed by 4 µL of Tag2-PD-1 solution (250 nM). 1X Anti-Tag1 Eu Cryptate reagent solution (25 nM|) and 1X Anti-Tag2 XL665 antibody solution (250 nM) were pre-mixed prior to dispensing 10 µL into the well, for a total volume of 20 µL. The plate was sealed and incubated for 1 hour at room temperature. Samples were analysed in triplicate. Once incubated, the plate was read using a CLARIOstar (BMG Labtech) microplate reader following manufacturer’s protocols for time resolved fluorescence (excitation filter EX-TR, emission filters 620 (10) nm, 665 (10) nm, dichoric mirror LP-TR, integration delay (lag time) 60 µs, integration time 400 µs, number of flashes 200, gain for white plate 2500).
The emission ratio was calculated for each well was calculated with the following equation:
Ratio = 665 nm Intensity […]
The “specific signal” (ΔR) is obtained by subtracting the background from the signal of each […]
∆R = RatioSample ‒ Ratiobackground […]
interaction. The data was fit to a three parameter logistic regression model with resulting R2 […]
On the day of analysis Raji-APC-nPD-L1 cell suspension ~100,000
(90 µL) was added to a 96 well plate containing test sample (1.8 µL), followed by Jurkat-Lucia TCR-hPD-1 cell suspension of ~200,000 (90 µL). The plate was incubated at 37 °C in a CO2 incubator for 6 hours. The co-cultured supernatant was transferred to 96-well clear bottomed […]
white plate. […]

The target in data set [2] is PD-L1. Particulars: cited from earlier work. The text has this: To determine where to insert AMPP, alanine scanning mutagenesis highlighted which amino acids were essential for inhibition using a homogenous time-resolved fluorescence (HTRF) binding assay (Cisbio).[38] From this Tyr5 and Trp7 were highlighted as being […] for inhibition (Fig. 2A). […] Photo-switchable peptides that have the potential to be switched “on” and “off” through structural changes, present an opportunity for externally controlled immune checkpoint inhibitors.

For data set [3], the system named is PD-1/PD-L1 interaction between Jurkat-Lucia TCR-hPD-1 and Raji-APC PD-L1 cells. In words: PD-1/PD-L1 immune checkpoint blockade cell-based assay (InvivoGen), luciferase read-out. Details: species or system human. The settings on record: Jurkat/Raji co-culture, 6 h at 37 °C, luminescence; 1 tested as cis isomer (irradiated at 365 nm); triplicate; brackets = 95% CI. As to the method: Fig. 3 (A) HTRF assay with PD-1/PD-L1 and peptides CLP003, cis1 And trans1. (B) PD-1/PD-L1 immune checkpoint blockade assay (Invivogen). Increased luminescence implies PD-1/PD-L1 inhibition between modified Jurkat and Raji cells. Errors are SEM, performed in triplicate. Representative examples of n = 3.
There was concern that during the cellular assay incubation at 37 °C may result in the azobenzene modified peptide relaxing back to the trans isomer. To determine whether 1 was thermally stable to continue with cellular assays, 1 was incubated at 37 °C for 8 h after irradiation at 365 nm for 15 minutes in buffer. […] To explore the activity of 1 in a cellular context, an immune checkpoint blockade assay was performed. The cell-based assay (InvivoGen) consists of Jurkat T cells that are engineered to express luciferase via T cell receptor (TCR) signalling and Raji cells engineered to express PD-L1 on the cell surface. If PD-L1 is bound to PD-1, the luciferase expression is inhibited. […] As such, luciferase activity directly correlates to the PD-1/PD-L1 interaction, measured by luminescence following luciferin addition. […]
The assay was performed following the manufacturer’s protocol. […] The plate was read using a CLARIOstar (BMG Labtech) microplate reader and used following manufacturer’s protocols, reading luminescence at a 4 s start time and 0.1 s […]

For data set [4], the system named is PD-1/PD-L1. The settings on record: read-out: IC50, PD-1/PD-L1 inhibition of BMS-1; cited from earlier work. The text has this: Photo-switchable peptides that have the potential to be switched “on” and “off” through structural changes, present an opportunity for externally controlled immune checkpoint inhibitors.
Data set [5] is described as follows: Thermal stability of 1 at 37 °C, analytical HPLC. The format is physicochemical. The settings on record: after irradiation at 365 nm for 15 min, 1 mg/mL in IMDM with 10% FBS, Pen-Strep and Normocin, analytical HPLC every hour. As to the method: There was concern that during the cellular assay incubation at 37 °C may result in the azobenzene modified peptide relaxing back to the trans isomer. To determine whether 1 was thermally stable to continue with cellular assays, 1 was incubated at 37 °C for 8 h after irradiation at 365 nm for 15 minutes in buffer. […] To explore the activity of 1 in a cellular context, an immune checkpoint blockade assay was performed. The cell-based assay (InvivoGen) consists of Jurkat T cells that are engineered to express luciferase via T cell receptor (TCR) signalling and Raji cells engineered to express PD-L1 on the cell surface. If PD-L1 is bound to PD-1, the luciferase expression is inhibited. If the PD-1/PD-L1 interaction is inhibited, TCR signalling causes luciferase expression. As such, luciferase activity directly correlates to the PD-1/PD-L1 interaction, measured by luminescence following luciferin addition. […]
Figure 6 a) The analytical HPLC traces of 6 reading at 214 nm top: after irradiation at 365 nm for 20 minutes showing predominantly the cis isomer (74:26) bottom: after being exposed for 20 minutes of ambient light showing predominantly the […]
This assay was purchased from CisBio and was performed following the manufacturer’s protocol. […] Samples were analysed in triplicate. […]
The emission ratio was calculated for each well was calculated with the following equation: […]

One may read the Kd as the concentration at which binding is half-saturated. The term EC50 denotes the midpoint of the concentration-response curve.

T1 sequence (Q9NZQ7 19-238 limits assumed): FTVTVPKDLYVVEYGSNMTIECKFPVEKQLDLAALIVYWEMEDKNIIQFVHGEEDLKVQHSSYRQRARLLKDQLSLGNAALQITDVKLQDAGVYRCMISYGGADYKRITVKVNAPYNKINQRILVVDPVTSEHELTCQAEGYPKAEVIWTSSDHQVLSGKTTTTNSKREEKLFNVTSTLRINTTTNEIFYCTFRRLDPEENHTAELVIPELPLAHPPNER

Regarding `CC(=O)N[C@@H](Cc1c[nH]c2ccccc12)C(=O)N[C@@H](Cc1c[nH]cn1)C(=O)N[C@@H](Cc1ccccc1)C(=O)N[C@@H](CO)C(=O)N[C@@H](Cc1ccc(O)cc1)C(=O)N[C@@H](CC(N)=O)C(=O)N[C@@H](Cc1c[nH]c2ccccc12)C(=O)N[C@@H](CCCNC(=N)N)C(=O)N[C@@H](Cc1c[nH]c2ccccc12)C(=O)N[C@@H](CC(C)C)C(=O)N1CCC[C@H]1C(=O)N1CCC[C@H]1C(N)=O` [CLP003, reference compound] (Ac-WHFSYNWRWLPP-NH2), the IC50 in data set [1] stood at 4680 nM. The Kd in data set [2] was 117 ± 80 nM.
As for `CC(=O)N[C@@H](Cc1c[nH]c2ccccc12)C(=O)N[C@@H](Cc1c[nH]cn1)C(=O)N[C@@H](Cc1ccccc1)C(=O)N[C@@H](CO)C(=O)N[C@@H](C)C(=O)N[C@@H](CC(N)=O)C(=O)N[C@@H](Cc1c[nH]c2ccccc12)C(=O)N[C@@H](CCCNC(=N)N)C(=O)N[C@@H](Cc1c[nH]c2ccccc12)C(=O)N[C@@H](CC(C)C)C(=O)N1CCC[C@H]1C(=O)N1CCC[C@H]1C(N)=O` [Y5A] (Ac-WHFSANWRWLPP-NH2), in data set [1], the IC50 is 52 nM and the “Alanine scan of CLP003, inhibition of PD-1/PD-L1 (HTRF) at single concentration” value is on record as “inhibiting PD-1/PD-L1”.
As for `COc1cc(OCc2cccc(-c3ccccc3)c2C)cc(OC)c1CN1CCCC[C@H]1C(=O)O` [BMS-1, reference compound], the 50% effective concentration (EC50) in data set [3] worked out at 3990 nM. In addition, the IC50 in data set [4] was 76 nM.
On to `CC(=O)N[C@@H](Cc1c[nH]c2ccccc12)C(=O)N[C@@H](Cc1c[nH]cn1)C(=O)N[C@@H](Cc1ccccc1)C(=O)N[C@@H](CO)C(=O)N[C@@H](Cc1ccc(O)cc1)C(=O)N[C@@H](CC(N)=O)C(=O)NCc1cccc(/N=N/c2cccc(CC(=O)N[C@@H](CCCNC(=N)N)C(=O)N[C@@H](Cc3c[nH]c4ccccc34)C(=O)N[C@@H](CC(C)C)C(=O)N3CCC[C@H]3C(=O)N3CCC[C@H]3C(N)=O)c2)c1` [compound 1] (Ac-WHFSYN[X1]RWLPP-NH2), for which the “Inhibition of PD-1/PD-L1 (HTRF), trans isomer” value in data set [1] (sample left in the dark (trans isomer), at up to 100 μM, detection buffer with 5% DMSO) is “no appreciable inhibition”. Further, in data set [3], the EC50 came to 5580 nM. Also, the “Thermal stability at 37 °C over 8 h (degradation / isomer state)” value in data set [5] is on record as “no degradation while remaining predominantly the cis isomer; also recorded: no observable change”.
`CC(=O)N[C@@H](Cc1c[nH]c2ccccc12)C(=O)N[C@@H](Cc1c[nH]cn1)C(=O)N[C@@H](Cc1ccccc1)C(=O)N[C@@H](CO)C(=O)N[C@@H](Cc1ccc(O)cc1)C(=O)N[C@@H](CC(N)=O)C(=O)N[C@@H](C)C(=O)N[C@@H](CCCNC(=N)N)C(=O)N[C@@H](Cc1c[nH]c2ccccc12)C(=O)N[C@@H](CC(C)C)C(=O)N1CCC[C@H]1C(=O)N1CCC[C@H]1C(N)=O` [W7A] (Ac-WHFSYNARWLPP-NH2): in data set [1], the IC50 is 25 nM and the “Alanine scan of CLP003, inhibition of PD-1/PD-L1 (HTRF) at single concentration” value is on record as “inhibiting PD-1/PD-L1”.
